# Source: patent US6777564B2, “Anthraquinone compound” (Industrial Technology Research Institute, priority 2001, dated 2004)
# Where two headings read alike, the source gives them in different places.
# Columns and labels:
# [1] = tested on: KB: human oral epidormaid Carcinama cell; assay: anti-cancer activity test (cytotoxicity), KB; format: cell-based; settings: KB cells; for IC50: Homo sapiens
# Method: (§1) The compounds were further screened on 60 human cancer cell lines by Developmental Therapeutics Program Human Tumor Cell Line Screen set up by the National Cancer Institute of the U. S. A. The screening procedures are described briefly hereinafter. Cell suspensions that were diluted according to the particular cell type and the expected target cell density (5000-40,000 cells per well based on cell growth characteristics) were added by pipet (100 μL) into 96-well microtiterplates. Inoculates were allowed a preincubation period of 24 hours at 37° C. for stabilization. Dilutions at twice the intended test concentration were added in 100 μL aliquots to the microtiter plate wells at time zero. Usually, test compounds were evaluated at five 10-fold dilutions. In routine testing, the highest well concentration was 10^−4 M, but for the standard agents the highest well concentration used depended on the agent. Incubations lasted for 48 hours in 5% CO2 atmosphere and 100% humidity. The cells were assayed by using the sulforhodamine B assay. A plate reader was used to read the optical densities, and a microcomputer processed the optical densities into the special concentration parameters. The results of these tests with representative compounds of the present invention appear in Table 1 and 2
# [2] = tested on: HT-1088: human fibrosarcoma cell; assay: anti-cancer activity test (cytotoxicity), HT; format: cell-based; settings: HT cells; for IC50: Homo sapiens
# [3] = tested on: BC-1: human breast cell; assay: anti-cancer activity test (cytotoxicity), BC 1; format: cell-based; settings: BC 1 cells; for IC50: Homo sapiens, BC1
# [4] = tested on: Lu1: human lung cell; assay: anti-cancer activity test (cytotoxicity), Lu1; format: cell-based; settings: Lu1 cells; for IC50: Homo sapiens
# [5] = target: T1, HIV-1 RT(p66) (Human immunodeficiency virus type 1 group M subtype B, UniProt P04585); assay: anti-virus activity test, HIV-1 RT(p66) inhibition; format: biochemical; settings: for activity inhibition (%) / inhibition at 200 µg/mL: at 200 μg/ml; for activity inhibition (%) / inhibition at 200 µg/mL / IC50: HIV-1 RT(p66); for activity inhibition / anti-virus ability (in words): at the concentration of 200 μg/ml
# T1 construct: 1-10 at 200 μg/ml to HIV-1 RT(p66)
# [6] = tested on: P-388: mouse lymphaid Macrophage cell; assay: anti-cancer activity test (cytotoxicity), P-388; format: cell-based; settings: P-388 cells; for IC50: Mus musculus, P388
# [7] = tested on: ZR-75-1: human breast cell; assay: anti-cancer activity test (cytotoxicity), ZR-75-1; format: cell-based; settings: ZR-75-1 cells; for IC50: Homo sapiens
# [8] = tested on: Mel2: human melanoma cell; assay: anti-cancer activity test (cytotoxicity), Mel2; format: cell-based; settings: Mel2 cells; for IC50: Homo sapiens
# [9] = tested on: Col2: human colon cell; assay: anti-cancer activity test (cytotoxicity), Col2; format: cell-based; settings: Col2 cells; for IC50: Homo sapiens
# [10] = tested on: U373: human glioma cell; assay: anti-cancer activity test (cytotoxicity), U373; format: cell-based; settings: U373 cells; for IC50: Homo sapiens, U373 MG
# [11] = tested on: A431: human squamous cell; assay: anti-cancer activity test (cytotoxicity), A431; format: cell-based; settings: A431 cells; for IC50: Homo sapiens, A-431
# [12] = tested on: LNCaP: human prostate cell; assay: anti-cancer activity test (cytotoxicity), LNCaP; format: cell-based; settings: LNCaP cells; for IC50: Homo sapiens
# [13] = tested on: KB-V: drug resisteant KB cell; assay: anti-cancer activity test (cytotoxicity), KB-V; format: cell-based, human; settings: KB-V cells; for IC50: Homo sapiens
# [14] = tested on: human cancer cell lines; assay: anti-cancer activity test, overall over the cell line panel; format: cell-based; settings: summary of Table 1
# Method: as §1
# [15] = read-out: IC50 (μg/ml) (converted)
Compound,IC50 KB [1],IC50 HT [2],IC50 BC 1 [3],activity inhibition / anti-virus ability (in words) [5],IC50 [1],IC50 [2],IC50 [3],IC50 [4],cytotoxic activity to cancer cell lines (in words) [14],inhibition at 200 µg/mL [5],IC50 [6],IC50 [7],IC50 [8],IC50 [9],IC50 [10],IC50 [11],IC50 [12],IC50 ([13]; with vinblastine (+VLB)),IC50 ([13]; without vinblastine (−VLB)),"IC50 [5, 15]",also measured
1-benzyl carbamidoacetamidoanthraquinone [Example 1],>20 µg/mL,13.9 µg/mL,>20 µg/mL,anti-virus ability but not so strong as the others,,,,,,,,,,,,,,,,,IC50 Lu1 [4]: >20 µg/mL; activity inhibition (%) [5]: 47.0%; IC50 P-388 [6]: >5 µg/mL; IC50 ZR-75-1 [7]: >20 µg/mL; IC50 Mel2 [8]: >20 µg/mL; IC50 Col2 [9]: >20 µg/mL; IC50 U373 [10]: >20 µg/mL; IC50 A431 [11]: >20 µg/mL; IC50 LNCaP [12]: 14.7 µg/mL; IC50 KB-V (+VLB) ([13]; with vinblastine (+VLB)): 3.8 µg/mL; IC50 KB-V (−VLB) ([13]; without vinblastine (−VLB)): >20 µg/mL
"N=C(N)NCC(=O)Nc1ccc2c(c1)C(=O)c1ccc(NC(=O)CNC(=N)N)cc1C2=O [Example 8, 2,6-di(guanidinoacetamido)anthraquinone]",,,,,1.4 µg/mL,6 µg/mL,5 µg/mL,12.2 µg/mL,more effective to most cancer cell lines,29.3%,> 5 µg/mL,7 µg/mL,12.7 µg/mL,3.3 µg/mL,8.6 µg/mL,5.8 µg/mL,7.2 µg/mL,> 20 µg/mL,> 20 µg/mL,,
"N=C(N)NCC(=O)Nc1ccc(N)c2c1C(=O)c1ccccc1C2=O [Example 2, 4-amino-1-guanido acetamidoanthraquinone]",,,,excellent effect on activity inhibition,1.2 µg/mL,2 µg/mL,1.6 µg/mL,3.1 µg/mL,more effective to most cancer cell lines,99.5%,> 5 µg/mL,3.4 µg/mL,4.4 µg/mL,4.2 µg/mL,0.6 µg/mL,0.4 µg/mL,4.1 µg/mL,16 µg/mL,> 20 µg/mL,25.8 µM,
"N=C(N)NCC(=O)Nc1cccc2c1C(=O)c1cccc(N)c1C2=O [Example 3, 5-amino-1-guanido acetamidoanthraquinone]",,,,excellent effect on activity inhibition,4.2 µg/mL,2.5 µg/mL,3 µg/mL,9.3 µg/mL,more effective to most cancer cell lines,99.6%,> 5 µg/mL,1.7 µg/mL,12 µg/mL,4.7 µg/mL,1 µg/mL,0.2 µg/mL,9 µg/mL,13.2 µg/mL,> 20 µg/mL,20.5 µM,
"N=C(N)NCC(=O)Nc1ccc2c(c1N)C(=O)c1ccccc1C2=O [Example 6, 1-amino-2-guanido acetamidoanthraquinone]",,,,excellent effect on activity inhibition,5.9 µg/mL,4.5 µg/mL,7.8 µg/mL,> 20 µg/mL,more effective to most cancer cell lines,99.7%,> 5 µg/mL,6.9 µg/mL,> 20 µg/mL,> 20 µg/mL,2 µg/mL,0.9 µg/mL,> 20 µg/mL,7.9 µg/mL,> 20 µg/mL,119 µM,
"N=C(N)NCC(=O)Nc1ccc2c(c1NC(=O)CNC(=N)N)C(=O)c1ccccc1C2=O [Example 10, 1,2-di(guanidinoacetamido)anthraquinone]",,,,excellent effect on activity inhibition,3.2 µg/mL,8.9 µg/mL,10.2 µg/mL,> 20 µg/mL,more effective to most cancer cell lines,92.3%,> 5 µg/mL,> 20 µg/mL,> 20 µg/mL,> 20 µg/mL,6.9 µg/mL,1.7 µg/mL,18 µg/mL,6.3 µg/mL,> 20 µg/mL,69.4 µM,
"N=C(N)NCC(=O)Nc1ccc2c(c1)C(=O)c1ccc(N)cc1C2=O [Example 7, 6-amino-2-guanidoacetamidoanthraquinone]",,,,excellent effect on activity inhibition,1.2 µg/mL,1.6 µg/mL,3.6 µg/mL,> 20 µg/mL,more effective to most cancer cell lines,99.7%,1.1 µg/mL,3.3 µg/mL,6.8 µg/mL,3.2 µg/mL,0.4 µg/mL,0.6 µg/mL,6.3 µg/mL,> 20 µg/mL,> 20 µg/mL,37.1 µM,
2-Benzyl Carbamidoacetamidoanthraquinone [Example 9],19.2 µg/mL,8.3 µg/mL,6.4 µg/mL,anti-virus ability but not so strong as the others,,,,,,,,,,,,,,,,,IC50 Lu1 [4]: 9.6 µg/mL; activity inhibition (%) [5]: 53.4%; IC50 P-388 [6]: >5 µg/mL; IC50 ZR-75-1 [7]: 6.4 µg/mL; IC50 Mel2 [8]: 15.1 µg/mL; IC50 Col2 [9]: 9.6 µg/mL; IC50 U373 [10]: 4.7 µg/mL; IC50 A431 [11]: 1.7 µg/mL; IC50 LNCaP [12]: >20 µg/mL; IC50 KB-V (+VLB) ([13]; with vinblastine (+VLB)): 1.4 µg/mL; IC50 KB-V (−VLB) ([13]; without vinblastine (−VLB)): >20 µg/mL
4-amino-1-benzyl Carbamidoacetamidoanthraquinone [Example 5],>20 µg/mL,>20 µg/mL,>20 µg/mL,anti-virus ability but not so strong as the others,,,,,,,,,,,,,,,,,IC50 Lu1 [4]: >20 µg/mL; activity inhibition (%) [5]: 23.0%; IC50 P-388 [6]: >5 µg/mL; IC50 ZR-75-1 [7]: >20 µg/mL; IC50 Mel2 [8]: >20 µg/mL; IC50 Col2 [9]: >20 µg/mL; IC50 U373 [10]: >20 µg/mL; IC50 A431 [11]: >20 µg/mL; IC50 LNCaP [12]: >20 µg/mL; IC50 KB-V (+VLB) ([13]; with vinblastine (+VLB)): 2.9 µg/mL; IC50 KB-V (−VLB) ([13]; without vinblastine (−VLB)): >20 µg/mL
"N=C(N)NCC(=O)Nc1ccc2c(c1)C(=O)c1ccccc1C2=O [Example 4, 2-guanidinoacetamido anthraquinone]",2.9 µg/mL,2.1 µg/mL,4.9 µg/mL,excellent effect on activity inhibition,,,,,more effective to most cancer cell lines,,,,,,,,,,,,IC50 Lu1 [4]: 14.1 µg/mL; IC50 [5]: 18.9 µg/mL; activity inhibition (%) [5]: 99.4%; IC50 P-388 [6]: >5 µg/mL; IC50 ZR-75-1 [7]: 3.6 µg/mL; IC50 Mel2 [8]: 9.8 µg/mL; IC50 Col2 [9]: 12.1 µg/mL; IC50 U373 [10]: 0.88 µg/mL; IC50 A431 [11]: 0.8 µg/mL; IC50 LNCaP [12]: 12.5 µg/mL; IC50 KB-V (+VLB) ([13]; with vinblastine (+VLB)): 7.5 µg/mL; IC50 KB-V (−VLB) ([13]; without vinblastine (−VLB)): >20 µg/mL
